Source: US20240150356A1, “Pyrimidine amide compounds and use thereof” (ALPHALA CO., LTD., priority 2019, published 2024)

The compounds below were run on Hep3B cells (hepatocellular carcinoma cell line) (assay: In vitro MTS cell viability assay (NCI-60 methodology), Hep3B). Settings: Homo sapiens, 48 h, Table 1, MTS, 2 days drug incubation, 50% reduction vs time zero, read-out: Hep3B LC50.
Assay type: cell-based
Summary of the method: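 Hep3B cells given five 2-fold dilutions of compound for 2 days, with viability by MTS measured at time zero and at end. LC50 is the concentration giving a 50% fall in viable cells relative to the start of treatment, per NCI-60 formula.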
Work on `Cn1ncc2c(NC(=O)c3ccc([N+](=O)[O-])s3)nc(-c3cccc(OC(F)(F)F)c3)nc21` [Compound 1-6, N-(1-methyl-6-(3-(trifluoromethoxy)phenyl)-1H-pyrazolo[3,4-d]pyrimidin-4-yl)-5-nitrothiophene-2-carboxamide] yielded an LC50 of 1470 nM. `Cn1ncc2c(NC(=O)c3ccc([N+](=O)[O-])s3)nc(-c3ccccc3OC(F)(F)F)nc21` [Compound 1-8, N-(1-methyl-6-(2-(trifluoromethoxy)phenyl)-1H-pyrazolo[3,4-d]pyrimidin-4-yl)-5-nitrothiophene-2-carboxamide] showed an LC50 of 2530 nM.

Same assay, conditions: Homo sapiens, 48 h, Table 3, MTS, 2 days drug incubation, 50% reduction vs time zero, read-out: Hep3B LC50
For `CC(C)n1cc2nc(-c3ccc(C(C)(C)C)cc3)nc(NC(=O)c3ccc([N+](=O)[O-])s3)c2c1` [Compound 3-12, N-(2-(4-(tert-butyl)phenyl)-6-isopropyl-6H-pyrrolo[3,4-d]pyrimidin-4-yl)-5-nitrothiophene-2-carboxamide], the LC50 was > 10000 nM. For `Cc1nn(C)c2c(NC(=O)c3ccc([N+](=O)[O-])s3)nc(-c3cccc(C(F)(F)F)c3)nc12` [Compound 3-2, N-(1,3-dimethyl-5-(3-(trifluoromethyl)phenyl)-1H-pyrazolo[4,3-d]pyrimidin-7-yl)-5-nitrothiophene-2-carboxamide], the LC50 was 860 nM.

Same assay, conditions: Homo sapiens, 48 h, Table 4, MTS, 2 days drug incubation, 50% reduction vs time zero, read-out: Hep3B LC50
For `CC(C)(C)OC(=O)N1CCC(n2cnc3c(NC(=O)c4ccc([N+](=O)[O-])s4)nc(-c4ccc(F)cc4)nc32)CC1` [Compound 4-20, tert-butyl 4-(2-(4-fluorophenyl)-6-(5-nitrothiophene-2-carboxamide)-9H-purin-9-yl) piperidine-1-carboxylate], the LC50 was > 1250 nM. In the case of `Cc1csc2c(NC(=O)c3ccc([N+](=O)[O-])s3)nc(-c3cccc(F)c3)nc12` [Compound 4-7, N-(2-(3-fluorophenyl)-7-methylthieno[3,2-d]pyrimidin-4-yl)-5-nitrothiophene-2-carboxamide], the LC50 is reported as 1280 nM.

Same assay, conditions: Homo sapiens, 48 h, Table 5, MTS, 2 days drug incubation, 50% reduction vs time zero, read-out: Hep3B LC50
In the case of `O=C(Nc1nc(-c2ccc(C(F)(F)F)cc2F)nc2c1cnn2-c1ccccc1)c1ccc([N+](=O)[O-])s1` [Compound 5-51, N-(6-(2-fluoro-4-(trifluoromethyl)phenyl)-1-phenyl-1H-pyrazolo[3,4-d]pyrimidin-4-yl)-5-nitrothiophene-2-carboxamide], the LC50 is reported as 370 nM. In the case of `O=C(Nc1nc(-c2ccsc2)nc2c1cnn2-c1ccccc1)c1ccc([N+](=O)[O-])s1` [Compound 5-20, 5-nitro-N-(1-phenyl-6-(thiophen-3-yl)-1H-pyrazolo[3,4-d]pyrimidin-4-yl)thiophene-2-carboxamide], the LC50 is reported as 1110 nM. `O=C(Nc1nc(Oc2ccc(F)cc2)nc2c1cnn2-c1ccccc1)c1ccc([N+](=O)[O-])s1` [Compound 5-14, N-(6-(4-fluorophenoxy)-1-phenyl-1H-pyrazolo[3,4-d]pyrimidin-4-yl)-5-nitrothiophene-2-carboxamide] was tested, and the LC50 was > 5000 nM. `O=C(Nc1nc(Sc2ccc(Cl)cc2)nc2c1cnn2-c1ccccc1)c1ccc([N+](=O)[O-])s1` [Compound 5-16] was tested, and the LC50 was 360 nM. `O=C(Nc1nc(-c2ccc(F)cc2)nc2c1cnn2-c1ccccc1)c1ccc([N+](=O)[O-])s1` [Compound 5-27] showed an LC50 of 270 nM. For `O=C(Nc1nc(-c2cncnc2)nc2c1cnn2-c1ccccc1)c1ccc([N+](=O)[O-])s1` [Compound 5-24, 5-nitro-N-(1-phenyl-6-(pyrimidin-5-yl)-1H-pyrazolo[3,4-d]pyrimidin-4-yl)thiophene-2-carboxamide], the LC50 was 960 nM. With `O=C(Nc1nc(NS(=O)(=O)c2ccc(Cl)cc2)nc2c1cnn2-c1ccccc1)c1ccc([N+](=O)[O-])s1` [Compound 5-9, N-(6-((4-chlorophenyl)sulfonamido)-1-phenyl-1H-pyrazolo[3,4-d]pyrimidin-4-yl)-5-nitrothiophene-2-carboxamide] the LC50 was > 6000 nM. With `O=C(Nc1nc(Oc2ccccc2)nc2c1cnn2-c1ccccc1)c1ccc([N+](=O)[O-])s1` [Compound 5-13, 5-nitro-N-(6-phenoxy-1-phenyl-1H-pyrazolo[3,4-d]pyrimidin-4-yl)thiophene-2-carboxamide] the LC50 was > 5000 nM.

Same assay, conditions: Homo sapiens, 48 h, Table 6, MTS, 2 days drug incubation, 50% reduction vs time zero, read-out: Hep3B LC50
Work on `CCOCCOCCOc1ccc(-c2nc(NC(=O)c3ccc([N+](=O)[O-])s3)c3cnn(-c4cccc(F)c4)c3n2)cn1` [Compound 6-96, N-(6-(6-(2-(2-ethoxyethoxy)ethoxy)pyridin-3-yl)-1-(3-fluorophenyl)-1H-pyrazolo[3,4-d]pyrimidin-4-yl)-5-nitrothiophene-2-carboxamide] yielded an LC50 of 350 nM. `CC(C)(C)c1ccc(-n2ncc3c(NC(=O)c4ccc([N+](=O)[O-])s4)nc(N4CC(F)(F)C4)nc32)cc1` [Compound 6-65, N-(1-(4-(tert-butyl)phenyl)-6-(3,3-difluoroazetidin-1-yl)-1H-pyrazolo[3,4-d]pyrimidin-4-yl)-5-nitrothiophene-2-carboxamide] gave an LC50 of 320 nM. `O=C(Nc1nc(-c2ccsc2)nc2c1cnn2-c1ccc(F)cc1)c1ccc([N+](=O)[O-])s1` [Compound 6-107] gave an LC50 of 370 nM. In the case of `O=C(Nc1nc(-c2ccsc2)nc2c1cnn2-c1cccc(Cl)c1)c1ccc([N+](=O)[O-])s1` [Compound 6-33, N-(1-(3-chlorophenyl)-6-(thiophen-3-yl)-1H-pyrazolo[3,4-d]pyrimidin-4-yl)-5-nitrothiophene-2-carboxamide], the LC50 is reported as 290 nM. In the case of `O=C(Nc1nc(-c2ccc(F)cc2F)nc2c1cnn2-c1ccc(F)cc1)c1ccc([N+](=O)[O-])s1` [Compound 6-126], the LC50 is reported as 350 nM. `COC(=O)[C@@H]1CCCN1c1nc(NC(=O)c2ccc([N+](=O)[O-])s2)c2cnn(-c3ccc(F)cc3)c2n1` [Compound 6-100, methyl (1-(4-fluorophenyl)-4-(5-nitrothiophene-2-carboxamido)-1H-pyrazolo [3,4-d]pyrimidin-6-yl)-L-prolinate] showed an LC50 of 740 nM. Work on `CCOCCOc1ccc(-c2nc(NC(=O)c3ccc([N+](=O)[O-])s3)c3cnn(-c4ccc(OC)cc4)c3n2)cn1` [Compound 6-27, N-(6-(6-(2-ethoxyethoxy)pyridin-3-yl)-1-(4-methoxyphenyl)-1H-pyrazolo[3,4-d]pyrimidin-4-yl)-5-nitrothiophene-2-carboxamide] yielded an LC50 of 210 nM. For `CC1CCC(c2nc(NC(=O)c3ccc([N+](=O)[O-])s3)c3cnn(-c4ccc(F)cc4)c3n2)CC1` (stereo not shown) [Compound 6-143, N-(1-(4-fluorophenyl)-6-(4-methylcyclohexyl)-1H-pyrazolo[3,4-d]pyrimidin-4-yl)-5-nitrothiophene-2-carboxamide], the LC50 was 1020 nM.

Same assay, conditions: Homo sapiens, 48 h, Table 7, MTS, 2 days drug incubation, 50% reduction vs time zero, read-out: Hep3B LC50
Work on `O=C(Nc1nc(-c2ccc(Cl)cc2)nc2c1cnn2-c1ccc(F)cc1F)c1ccc([N+](=O)[O-])s1` [Compound 7-14] yielded an LC50 of 580 nM.

Same assay, conditions: Homo sapiens, 48 h, Table 9, MTS, 2 days drug incubation, 50% reduction vs time zero, read-out: Hep3B LC50
`CCOCCOCCOC(=O)N1CCC(n2ncc3c(NC(=O)c4ccc([N+](=O)[O-])s4)nc(-c4ccc(Cl)cc4)nc32)CC1` [Compound 9-11, 2-(2-ethoxyethoxy)ethyl 4-(6-(4-chlorophenyl)-4-(5-nitrothiophene-2-carboxamido)-1H-pyrazolo[3,4-d]pyrimidin-1-yl)piperidine-1-carboxylate] was tested, and the LC50 was > 1250 nM. `O=C(Nc1nc(-c2ccc(Cl)cc2)nc2c1cnn2C1CCN(C(=O)OCCCC(F)(F)F)CC1)c1ccc([N+](=O)[O-])s1` [Compound 9-9] gave an LC50 of 1070 nM. `CC(C)(C)C(=O)N1CCC(n2ncc3c(NC(=O)c4ccc([N+](=O)[O-])s4)nc(-c4ccc(F)nc4)nc32)CC1` [Compound 9-8, N-(6-(6-fluoropyridin-3-yl)-1-(1-pivaloylpiperidin-4-yl)-1H-pyrazolo[3,4,d]pyrimidin-4-yl)-5-nitrothiophene-2-carboxamide] gave an LC50 of 1900 nM.

Same assay, conditions: Homo sapiens, 48 h, Table 10, MTS, 2 days drug incubation, 50% reduction vs time zero, read-out: Hep3B LC50
`CC1CC(C)CC(n2ncc3c(NC(=O)c4ccc([N+](=O)[O-])s4)nc(-c4ccc(Cl)cc4F)nc32)C1` (stereo not shown) [Compound 10-72, N-(6-(4-chloro-2-fluorophenyl)-1-(3,5-dimethylcyclohexyl)-1H-pyrazolo[3,4-d]pyrimidin-4-yl)-5-nitrothiophene-2-carboxamide] gave an LC50 of 760 nM. `CN(C)Cc1ccc(-c2nc(NC(=O)c3ccc([N+](=O)[O-])s3)c3cnn(C4CCCCC4)c3n2)cc1` [Compound 10-29, N-(1-cyclohexyl-6-(4-((dimethylamino)methyl)phenyl)-1H-pyrazolo[3,4-d]pyrimidin-4-yl)-5-nitrothiophene-2-carboxamide] showed an LC50 of 1510 nM. For `O=C(Nc1nc(-c2ccc3c(c2)OCO3)nc2c1cnn2C1CCCCC1)c1ccc([N+](=O)[O-])s1` [Compound 10-36, N-(6-(benzo[d][1,3]dioxol-5-yl)-1-cyclohexyl-1H-pyrazolo[3,4-d]pyrimidin-4-yl)-5-nitrothiophene-2-carboxamide], the LC50 was 2120 nM. In the case of `Cc1ccc(-c2nc(NC(=O)c3ccc([N+](=O)[O-])s3)c3cnn(C4CCCCC4)c3n2)cn1` [Compound 10-19], the LC50 is reported as 1130 nM. Work on `O=Cc1ccc(-c2nc(NC(=O)c3ccc([N+](=O)[O-])s3)c3cnn(C4CCCCC4)c3n2)cc1` [Compound 10-27, N-(1-cyclohexyl-6-(4-formylphenyl)-1H-pyrazolo[3,4-d]pyrimidin-4-yl)-5-nitrothiophene-2-carboxamide] yielded an LC50 of 840 nM. Work on `O=C(Nc1nc(-c2cc(Cl)ccc2F)nc2c1cnn2C1CCCCC1)c1ccc([N+](=O)[O-])s1` [Compound 10-47, N-(6-(5-chloro-2-fluorophenyl)-1-cyclohexyl-1H-pyrazolo[3,4-d]pyrimidin-4-yl)-5-nitrothiophene-2-carboxamide] yielded an LC50 of 630 nM. In the case of `O=C(Nc1nc(-c2ccc(Cl)cc2Cl)nc2c1cnn2C1CCCCC1)c1ccc([N+](=O)[O-])s1` [Compound 10-42], the LC50 is reported as > 1250 nM. `O=C(Nc1nc(-c2cccnc2)nc2c1cnn2C1CCCCC1)c1ccc([N+](=O)[O-])s1` [Compound 10-10, N-(1-cyclohexyl-6-(pyridin-3-yl)-1H-pyrazolo[3,4,d]pyrimidin-4-yl)-5-nitrothiophene-2-carboxamide] was tested, and the LC50 was 990 nM.
